Data on 20 compounds can be found in US11400081B2, “Compounds” (The University of Sheffield, priority 2017, dated 2022).

This test deals with T1, AM2 receptor (CALCRL+RAMP3) (Homo sapiens, UniProt O60896+Q16602).
T1 construct: host or cells: 1321N1
T1 sequence (Q16602 23-461): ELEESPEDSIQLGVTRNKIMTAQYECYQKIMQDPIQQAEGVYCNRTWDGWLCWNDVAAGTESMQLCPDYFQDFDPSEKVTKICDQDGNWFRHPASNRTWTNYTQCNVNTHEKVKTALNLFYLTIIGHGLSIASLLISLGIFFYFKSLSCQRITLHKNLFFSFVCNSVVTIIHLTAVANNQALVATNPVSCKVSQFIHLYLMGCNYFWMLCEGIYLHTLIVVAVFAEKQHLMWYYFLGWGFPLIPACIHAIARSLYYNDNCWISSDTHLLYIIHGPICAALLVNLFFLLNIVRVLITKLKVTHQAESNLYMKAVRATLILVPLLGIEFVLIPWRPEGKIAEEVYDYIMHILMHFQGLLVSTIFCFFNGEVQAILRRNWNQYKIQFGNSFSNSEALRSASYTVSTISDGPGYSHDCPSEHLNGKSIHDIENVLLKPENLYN
T1 sequence (O60896 24-148): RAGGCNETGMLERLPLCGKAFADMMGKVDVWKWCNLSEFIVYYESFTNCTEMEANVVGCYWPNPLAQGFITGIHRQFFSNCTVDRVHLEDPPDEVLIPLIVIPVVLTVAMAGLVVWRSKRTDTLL
The test can be described thus: AM2 receptor inhibition, LANCE TR-FRET cAMP agonist-antagonist competition assay. Type of test: cell-based. The settings on record: inhibition of AM induced cAMP activation; 1321N1 cells transfected with CALCRL+RAMP3; read-out: AM2 pIC50 (converted). As to the method:
Compounds were assessed for their ability to inhibit ligand-induced elevations of cAMP, using the Perkin Elmer LANCE cAMP assay using commercially-available cells expressing a specific receptor of interest using the following general procedure:
Compounds were prepared in dimethyl sulfoxide (DMSO—99.9% pure) (Sigma Aldrich, Cat #: D4540) added to powder stocks to produce a 20 mM solution (100% DMSO) that was sonicated at 37° C. for 10 minutes to fully dissolve the compounds. The 20 mM stocks were diluted further in DMSO to produce a 2 mM solution that was sonicated at 37° C. for 10 minutes. 2 mM stocks were dissolved in assay/stimulation buffer to produce a 400 μM solution that was sonicated at 37° C. for 10 minutes for all cAMP assays. All stocks were stored at −20° C. Then serial dilution (Dilution factor 10) was performed to achieve the desire experimental concentrations.
Competition assays were performed according to the manufactures instructions using LANCE® TR-FRET cAMP assay kit (Perkin Elmer, Cat #: AD0264). Serial dilutions (3 μl/well) of the molecules were plated in a 384-well OptiPlate (Perkin Elmer, Cat #: 6007299) in duplicates. Appropriate controls (100% stimulation: Forskolin and 0% stimulation: Vehicle control) (6 μl/well) were included in each plate for data normalization. Following the compound addition, 6 μl of G-protein coupled receptor overexpressing cells/Alexa Fluor antibody solution (1:100 dilution) was added in each well at a desired density of 2500 cells/well. The overexpressing cell lines were purchased from DiscoveRx, Birmingham, UK. After spinning the plate at 1000 rpm for 1 minute and vortexing briefly, the cells were pre-incubated with the compounds for 30 minutes at room temperature (covered). Then 3 μl of the equivalent peptide ligand (EC50 dose) was added to all the wells except vehicle and forskolin controls. The plate were then spun down at 1000 rpm for 1 minute and once finished they were vortexed briefly and covered. Cells were stimulated in the presence of the ligands for 15 minutes at room temperature. After stimulation 12 μl of detection mix (Europium-Chelate streptavidin/biotinylated cAMP tracer solution) was added to all wells and incubated for 60 minutes at room temperature. The plate was then read on the Enspire multimode Plate reader (Perkin Elmer), at; 320/340 nm excitation and 615/665 nm emission was recorded.
• 28 mL Hank's Balanced salt solution (+MgCl2, +CaCl2)—(Thermo Fisher Cat #:14170112) • 150 μl HEPES (1M)—(Thermo Fisher Cat #:15630080) • 400 μl Stabilizer (DTPA) Purified BSA (7.5%)—(Perkin Elmer, Cat #: CR84-100) • 60 μl IBMX (250 mM)—(Sigma Aldrich, Cat #: 15879) Specific cAMP/Agonist-Antagonist Competition Assays
The ability of a compound to inhibit the AM induced cAMP activation in AM2 receptor-expressing cells (1321N1 cells transfected with CALCRL+RAMP3, sourced from DiscoverX catalogue number 95-0169C6) was assessed using the protocol above.
As for `CNCc1ccccc1CN(C(=O)C(C)(C)C)[C@@H](C)C(=O)Nc1ccc2c(c1)CC1(C2)C(=O)Nc2ncccc21` (stereo partly drawn) [Example 34, N-(2-((Methylamino)methyl)benzyl)-N-((2S)-1-oxo-1-((2′-oxo-1,1′,2′,3-tetrahydrospiro[indene-2,3′-pyrrolo[2,3-b]pyridin]-5-yl)amino)propan-2-yl)pivalamide], the IC50 was 12.3 nM.

Take `CNCc1ccccc1CN(C(=O)C(C)(C)C)[C@H](C)C(=O)Nc1ccc2c(c1)CC1(C2)C(=O)Nc2ncccc21` (stereo partly drawn) [Example 35, N-(2-((Methylamino)methyl)benzyl)-N-((2R)-1-oxo-1-((2′-oxo-1,1′,2′,3-tetrahydrospiro[indene-2,3′-pyrrolo[2,3-b]pyridin]-5-yl)amino)propan-2-yl)pivalamide]: the IC50 is 18.2 nM.

As to `CNCc1c(F)cccc1CN(CC(=O)Nc1ccc2c(c1)CC1(C2)C(=O)Nc2ncccc21)C(=O)C(C)(C)C` (centres unmarked) [Example 36, N-(3-fluoro-2-((methylamino)methyl)benzyl)-N-(2-oxo-2-((2′-oxo-1,1′,2′,3-tetrahydrospiro[indene-2,3′-pyrrolo[2,3-b]pyridin]-5-yl)amino)ethyl)pivalamide], the IC50 was 93.3 nM.

Take `CNCc1cc(F)c(F)cc1CN(CC(=O)Nc1ccc2c(c1)CC1(C2)C(=O)Nc2ncccc21)C(=O)C(C)(C)C` (centres unmarked) [Example 37, N-(4,5-difluoro-2-((methylamino)methyl)benzyl)-N-(2-oxo-2-((2′-oxo-1,1′,2′,3-tetrahydrospiro[indene-2,3′-pyrrolo[2,3-b]pyridin]-5-yl)amino)ethyl)pivalamide]: the IC50 is 145 nM.

Turning to `Cc1cc2c(cc1NC(=O)CN(Cc1ccccc1CN)C(=O)C(C)(C)C)CC1(C2)C(=O)Nc2ncccc21` (centres unmarked) [Example 39, N-(2-(Aminomethyl)benzyl)-N-(2-((5-methyl-2′-oxo-1,1′,2,3-tetrahydrospiro[indene-2,3′-pyrrolo[2,3-b]pyridin]-6-yl)amino)-2-oxoethyl)pivalamide], the IC50 was 15.5 nM.

Turning to `CNCc1ccccc1CN(CC(=O)Nc1cc2c(cc1C)CC1(C2)C(=O)Nc2ncccc21)C(=O)C(C)(C)C` (centres unmarked) [Example 40, N-(2-((5-Methyl-2′-oxo-1,1′,2′,3-tetrahydrospiro[indene-2,3′-pyrrolo[2,3-b]pyridin]-6-yl)amino)-2-oxoethyl)-N-(2-((methylamino)methyl)benzyl)pivalamide], the IC50 is 7.41 nM.

Regarding `CC(C)(C)C(=O)N(CC(=O)Nc1ccc2c(c1)CC1(C2)C(=O)Nc2ncccc21)Cc1ccccc1C(=N)NO` (centres unmarked) [Example 41, N-(2-(N-Hydroxycarbamimidoyl)benzyl)-N-(2-oxo-2-((2′-oxo-1,1′,2′,3-tetrahydrospiro[indene-2,3′-pyrrolo[2,3-b]pyridin]-5-yl)amino)ethyl)pivalamide], the IC50 was 100 nM.

Consider `CC(=N)NCc1ccccc1CN(CC(=O)Nc1ccc2c(c1)CC1(C2)C(=O)Nc2ncccc21)C(=O)C(C)(C)C` (centres unmarked) [Example 42, N-(2-(Acetimidamidomethyl)benzyl)-N-(2-oxo-2-((2′-oxo-1,1′,2′,3-tetrahydrospiro[indene-2,3′-pyrrolo[2,3-b]pyridin]-5-yl)amino)ethyl)pivalamide], for which the IC50 is 135 nM.

As for `CC(C)(C)OC(=O)N(CC(=O)Nc1ccc2c(c1)CC1(C2)C(=O)Nc2ncccc21)Cc1ccccc1CN1CCC1` (centres unmarked) [Example 44, tert-Butyl 2-(azetidin-1-ylmethyl)benzyl(2-oxo-2-((2′-oxo-1,1′,2′,3-tetrahydrospiro[indene-2,3′-pyrrolo[2,3-b]pyridin]-5-yl)amino)ethyl)carbamate], the IC50 is 74.1 nM.

In the case of `O=C(CN(Cc1ccccc1CN1CCC1)C(=O)CC(F)(F)F)Nc1ccc2c(c1)CC1(C2)C(=O)Nc2ncccc21` (centres unmarked) [Example 45, N-(2-(Azetidin-1-ylmethyl)benzyl)-3,3,3-trifluoro-N-(2-oxo-2-((2′-oxo-1,1′,2,3-tetrahydrospiro[indene-2,3′-pyrrolo[2,3-b]pyridin]-5-yl)amino)ethyl)propanamide], the IC50 is 245 nM.

With `O=C(CN(Cc1ccccc1CN1CCC1)C(=O)C1CCCC1)Nc1ccc2c(c1)CC1(C2)C(=O)Nc2ncccc21` (centres unmarked) [Example 46, N-(2-(Azetidin-1-ylmethyl)benzyl)-N-(2-oxo-2-((2′-oxo-1,1′,2′,3-tetrahydrospiro[indene-2,3′-pyrrolo[2,3-b]pyridin]-5-yl)amino)ethyl)cyclopentanecarboxamide], the IC50 is 2.82 nM.

As to `CC1(C(=O)N(CC(=O)Nc2ccc3c(c2)CC2(C3)C(=O)Nc3ncccc32)Cc2ccccc2CN2CCC2)CC1` (centres unmarked) [Example 47, N-(2-(Azetidin-1-ylmethyl)benzyl)-1-methyl-N-(2-oxo-2-((2′-oxo-1,1′,2′,3-tetrahydrospiro[indene-2,3′-pyrrolo[2,3-b]pyridin]-5-yl)amino)ethyl)-cyclopropanecarboxamide], the IC50 is 15.5 nM.

As for `O=C(CN(Cc1ccccc1CN1CCC1)C(=O)C1CC1)Nc1ccc2c(c1)CC1(C2)C(=O)Nc2ncccc21` (centres unmarked) [Example 49, N-(2-(Azetidin-1-ylmethyl)benzyl)-N-(2-oxo-2-((2′-oxo-1,1′,2′,3-tetrahydrospiro[indene-2,3′-pyrrolo[2,3-b]pyridin]-5-yl)amino)ethyl)cyclopropanecarboxamide], the IC50 is 10.2 nM.

Take `COC(=O)N(CC(=O)Nc1ccc2c(c1)CC1(C2)C(=O)Nc2ncccc21)Cc1ccccc1CN1CCC1` (centres unmarked) [Example 50, Methyl 2-(azetidin-1-ylmethyl)benzyl(2-oxo-2-((2′-oxo-1,1′,2′,3-tetrahydrospiro[indene-2,3′-pyrrolo[2,3-b]pyridin]-5-yl)amino)ethyl)carbamate]: the IC50 is 74.1 nM.

In the case of `O=C(CN(Cc1ccccc1CN1CCC1)C(=O)c1ccccc1)Nc1ccc2c(c1)CC1(C2)C(=O)Nc2ncccc21` (centres unmarked) [Example 51, N-(2-(Azetidin-1-ylmethyl)benzyl)-N-(2-oxo-2-((2′-oxo-1,1′,2′,3-tetrahydrospiro[indene-2,3′-pyrrolo[2,3-b]pyridin]-5-yl)amino)ethyl)benzamide], the IC50 was 85.1 nM.

With `O=C(CN(Cc1ccccc1CN1CCC1)C(=O)c1ccccn1)Nc1ccc2c(c1)CC1(C2)C(=O)Nc2ncccc21` (centres unmarked) [Example 52, N-(2-(Azetidin-1-ylmethyl)benzyl)-N-(2-oxo-2-((2′-oxo-1,1′,2,3-tetrahydrospiro[indene-2,3′-pyrrolo[2,3-b]pyridin]-5-yl)amino)ethyl)picolinamide], the IC50 was 46.8 nM.

With `CNCc1ccc(F)cc1CN(CC(=O)Nc1ccc2c(c1)CC1(C2)C(=O)Nc2ncccc21)C(=O)C(C)(C)C` (centres unmarked) [Example 54, N-(5-Fluoro-2-((methylamino)methyl)benzyl)-N-(2-oxo-2-((2′-oxo-1,1′,2′,3-tetrahydrospiro[indene-2,3′-pyrrolo[2,3-b]pyridin]-5-yl)amino)ethyl)pivalamide], the IC50 is 3.55 nM.

Consider `CNCc1cc(F)ccc1CN(CC(=O)Nc1ccc2c(c1)CC1(C2)C(=O)Nc2ncccc21)C(=O)C(C)(C)C` (centres unmarked) [Example 55, N-(4-Fluoro-2-((methylamino)methyl)benzyl)-N-(2-oxo-2-((2′-oxo-1,1′,2′,3-tetrahydrospiro[indene-2,3′-pyrrolo[2,3-b]pyridin]-5-yl)amino)ethyl)pivalamide], for which the IC50 was 9.77 nM.

In the case of `CNCc1cccc(F)c1CN(CC(=O)Nc1ccc2c(c1)CC1(C2)C(=O)Nc2ncccc21)C(=O)C(C)(C)C` (centres unmarked) [Example 56, N-(2-Fluoro-6-((methylamino)methyl)benzyl)-N-(2-oxo-2-((2′-oxo-1,1′,2′,3-tetrahydrospiro[indene-2,3′-pyrrolo[2,3-b]pyridin]-5-yl)amino)ethyl)pivalamide], the IC50 is 151 nM.

For `CNCc1ccccc1CN(CC(=O)Nc1ccc2c(c1)CC1(C2)C(=O)Nc2ncccc21)C(=O)COC` (centres unmarked) [Example 57, 2-Methoxy-N-(2-((methylamino)methyl)benzyl)-N-(2-oxo-2-((2′-oxo-1,1′,2′,3-tetrahydrospiro[indene-2,3′-pyrrolo[2,3-b]pyridin]-5-yl)amino)ethyl)acetamide], the IC50 is 269 nM.
